Measured values published in ChEMBL document CHEMBL3045162, “Inhibition of HIV-1 replication by a tricyclic coumarin GUT-70 in acutely and chronically infected cells” (Bioorg Med Chem Lett, 2013).
Blank lines part the entries; values can stand above or below the compound they belong to. Activity calls are given as the source filed them. The rule behind the calls is not given here.

What was measured:
U1 [1] = experiment: Inhibition of NF-kappaB-mediated viral replication in Homo sapiens (human) U1 cells […] at 10 uM after 24 hr by RT-PCR analysis in presence of TNF-alpha; format: cell-based
[2] = target: Transcription factor p65 (Homo sapiens) (UniProt Q04206); experiment: Inhibition of NF-kappa B p65 activity in TNFalpha-treated Homo sapiens (human) U1 cells at 10 uM after 2 to 4 hr by luciferase assay; format: cell-based
Transcription factor p65 (Homo sapiens), sequence (Q04206 whole entry): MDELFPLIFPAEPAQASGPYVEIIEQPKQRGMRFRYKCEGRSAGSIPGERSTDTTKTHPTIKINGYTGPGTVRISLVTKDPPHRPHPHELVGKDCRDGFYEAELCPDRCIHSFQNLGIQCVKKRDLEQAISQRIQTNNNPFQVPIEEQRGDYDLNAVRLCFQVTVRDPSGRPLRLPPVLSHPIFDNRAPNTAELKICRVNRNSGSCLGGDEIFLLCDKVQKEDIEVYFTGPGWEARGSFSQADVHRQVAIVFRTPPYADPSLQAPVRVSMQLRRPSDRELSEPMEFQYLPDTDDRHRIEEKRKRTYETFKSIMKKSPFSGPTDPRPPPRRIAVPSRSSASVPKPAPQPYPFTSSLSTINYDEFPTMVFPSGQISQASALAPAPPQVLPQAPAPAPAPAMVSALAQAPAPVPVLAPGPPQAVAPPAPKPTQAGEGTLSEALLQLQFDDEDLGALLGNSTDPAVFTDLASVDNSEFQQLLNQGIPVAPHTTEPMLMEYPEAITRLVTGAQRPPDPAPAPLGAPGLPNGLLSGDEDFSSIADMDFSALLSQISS

TZM-bl = experiment: Inhibition of NF-kappaB-mediated viral replication in Homo sapiens (human) TZM-bl cells infected with X4 tropic HIV1 NL4-3 compound pre-treated for 2hr before infection measured after 24 hr by luciferase assay; format: cell-based
U1 [3] = experiment: Cytotoxicity against Homo sapiens (human) U1 cells by MTT assay in presence of PMA; format: cell-based
MOLT-4 [4] = experiment: Cytotoxicity against Homo sapiens (human) MOLT4 cells by MTT assay; format: cell-based
U1 [5] = experiment: Cytotoxicity against Homo sapiens (human) U1 cells by MTT assay in presence of TNF-alpha; format: cell-based
[6] = target: Transcription factor p65 (Homo sapiens) (UniProt Q04206); experiment: Binding affinity to NF-kappa B p65 in Homo sapiens (human) U1 nuclear extract after 0.5 to 4 hr by competitive EMSA
MOLT-4 [7] = experiment: Inhibition of NF-kappaB-mediated viral replication in Homo sapiens (human) Molt-4 cells infected with X4 tropic HIV1 NL4-3 at 10 uM after 24 hr by RT-PCR analysis; format: cell-based
[8] = target: Transcription factor p65 (Homo sapiens) (UniProt Q04206); experiment: Reduction in NF-kappa B p65 cytosolic level in TNFalpha-treated Homo sapiens (human) U1 cells after 0.5 to 6 hr by Western blot analysis; format: cell-based
[9] = tested on: Human immunodeficiency virus 1; experiment: Antiviral activity against X4 tropic Human immunodeficiency virus 1 NL4-3 infected human Molt4 cells assessed as intracellular p24 expression at 10 uM after 4 days by flow cytometry; format: functional, organism-based; details: MOLT-4
[10] = Selectivity index, ratio of IC50 for PMA-stimulated human U1 cells to EC50 for X4 tropic HIV1 NL4-3 infected in PMA-stimulated human U1 cells; format: toxicity, cell-based; details: with X4 tropic HIV1 NL4-3, read-out: Ratio IC50/EC50
[11] = Selectivity index, ratio of IC50 for human MOLT4 cells to EC50 for X4 tropic HIV1 NL4-3 infected in human Molt4 cells; format: toxicity, cell-based, MOLT-4; details: read-out: Ratio IC50/EC50
[12] = tested on: Human immunodeficiency virus 1; experiment: Antiviral activity against X4 tropic Human immunodeficiency virus 1 NL4-3 infected human Molt4 cells assessed as intracellular p24 expression at 10 uM after 7 days by flow cytometry; format: functional, organism-based; details: MOLT-4
[13] = Selectivity index, ratio of IC50 for TNF-alpha-stimulated human U1 cells to EC50 for X4 tropic HIV1 NL4-3 infected in TNF-alpha-stimulated human U1 cells; format: toxicity, cell-based; details: with X4 tropic HIV1 NL4-3, read-out: Ratio IC50/EC50
[14] = target: Transcription factor p65 (Homo sapiens) (UniProt Q04206); experiment: Inhibition of NF-kappa B p65 nuclear translocation in TNFalpha-treated Homo sapiens (human) U1 cells after 0.5 to 6 hr by Western blot analysis; format: cell-based
[15] = tested on: Human immunodeficiency virus 1; experiment: Antiviral activity against X4 tropic Human immunodeficiency virus 1 NL4-3 infected human Molt4 cells assessed as intracellular p24 expression after 4 to 7 days by flow cytometry; format: functional, organism-based; details: Human immunodeficiency virus 1, NL4-3, MOLT-4
[16] = tested on: Human immunodeficiency virus 1; experiment: Antiviral activity against Human immunodeficiency virus 1 infected U1 cells assessed as intracellular p24 expression after 24 hr by flow cytometry in presence of PMA; format: functional, organism-based
[17] = tested on: Human immunodeficiency virus 1; experiment: Antiviral activity against Human immunodeficiency virus 1 infected U1 cells assessed as intracellular p24 expression after 24 hr by flow cytometry in presence of TNF-alpha; format: functional, organism-based
[18] = Cytotoxicity against Homo sapiens (human) TZM-bl cells by MTT assay; format: cell-based
[19] = Human immunodeficiency virus 1, U1, 24 h

Compound: CC(C)(C)c1ccc(S(=O)(=O)/C=C/C#N)cc1
- inhibition (U1 [1]): Active

Compound: CC(C)C[C@H](NC(=O)[C@H](Cc1ccccc1)NC(=O)c1cnccn1)B(O)O
- inhibition (U1 [1]): Active

- inhibition [2]: Active
- Activity [6]: Active
- Activity [8]: inactive
- inhibition [14]: Active
- EC50 [15]: 3.41 µM
- EC50 [16, 19]: 3.48 µM
- EC50 [17, 19]: 4.32 µM
Compound: C/C=C(\C)C(=O)c1c(OC)c2c(c3c(CCC)cc(=O)oc13)OC(C)(C)C=C2
- inhibition (TZM-bl): Active
- IC50 (U1 [3]): 8.44 µM
- IC50 (MOLT-4 [4]): > 10 µM
- IC50 (U1 [5]): 8.44 µM
- inhibition (MOLT-4 [7]): Active
- Activity [9]: Active
- selectivity ratio [10]: 2.43
- selectivity ratio [11]: > 2.93
- Activity [12]: Active
- selectivity ratio [13]: 1.95
- inhibition (U1 [1]): Active
- Activity [16]: Dose-dependent effect
- Activity [17]: Dose-dependent effect
- IC50 [18]: > 10 µM
